Data: patent US11613560B2, “Bicyclic peptide ligands specific for OX40” (BicycleTx Limited, priority 2019, dated 2023)

Target: T1, OX40 (Homo sapiens, UniProt P43489)
T1 construct: host or cells: OX40 Jurkat cells (NF-kB luciferase reporter)
T1 sequence (P43489 29-277): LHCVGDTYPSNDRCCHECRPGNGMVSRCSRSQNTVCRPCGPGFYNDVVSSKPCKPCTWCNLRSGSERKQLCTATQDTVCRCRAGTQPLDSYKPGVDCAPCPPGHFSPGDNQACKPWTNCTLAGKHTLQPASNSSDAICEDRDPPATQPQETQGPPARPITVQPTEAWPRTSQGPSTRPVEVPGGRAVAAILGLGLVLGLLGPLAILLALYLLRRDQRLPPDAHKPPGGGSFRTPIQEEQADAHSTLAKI
Assay: Promega OX40 cell-activity assay (NF-κB luciferase read-out in OX40 Jurkat cells)
Assay type: cell-based
Details: synthetic OX40 tetramer, FIG. 1
Experimental: Promega have developed an OX40 cell-activity assay that uses NF-κB luciferase luminescence as a read-out of OX40 activation in Jurkat cells (Promega CS197704). On the day of the experiment, prepare medium by thawing FBS and adding 5% FBS to RPMI-1640. Thaw OX40 Jurkat cells in the water-bath and then add 500 μl cells to 11.5 ml pre-warmed 5 FBS RPMI-1640 medium. Add 60 μl cells/well to white cell culture plates. Proceed to dilute agonists at concentration giving the maximum fold induction and then titrate down the amount in a sterile 96 well-plate. […] Prepare enough reagent for duplicate samples and then perform ⅓ dilution series or 1/10 dilution series. Include positive control OX40L trimer (R&D systems #1054-OX-010) and negative control monomeric peptide. Add 20 μl of agonist as duplicate samples or 5% FBS RPMI-1640 alone as background control.
Co-incubate cells together with agonists for 5 hours at 37° C., 5% CO2. After 5 hours, thaw Bio-Glo™ and develop the assay at room-temperature. Add 80 μl Bio-Glo™ per well and incubate 5-10 min. Read luciferase signal on CLARIOStar plate-reader using the MARS program and normalize the fold induction relative to background (medium alone). Analyse data by transforming the data to x=log (X), then plot log (agonist) vs. response variable slope (4 parameters) to calculate EC50 values.

## CC(C)C[C@@H]1NC(=O)[C@@H](NC(=O)[C@H](C)N)CSCCC(=O)N2CN3CN(C2)C(=O)CCSC[C@H](NC(=O)[C@@H]2CCCN2C(=O)[C@H](CO)NC(=O)[C@H](Cc2ccc(O)cc2)NC1=O)C(=O)N[C@@H](Cc1c[nH]c2ccccc12)C(=O)N[C@@H](Cc1c[nH]cn1)C(=O)N1CCC[C@H]1C(=O)N[C@@H](CC(C)C)C(=O)N[C@@H](CC(N)=O)C(=O)N[C@@H](CC(=O)O)C(=O)N[C@H](C(=O)N[C@@H](C)C(=O)N[C@@H](CCCCNC(=O)CCc1cn(CCOCCOCCOCCOCCOCCOCCOCCOCCOCCOCCOCCOCCOCCOCCOCCOCCOCCOCCOCCOCCOCCOCCOCCNC(=O)CCOCC(COCCC(=O)NCCOCCOCCOCCOCCOCCOCCOCCOCCOCCOCCOCCOCCOCCOCCOCCOCCOCCOCCOCCOCCOCCOCCOCCn2cc(CCC(=O)NCCCC[C@H](NC(=O)[C@H](C)NC(=O)[C@@H]4CSCCC(=O)N5CN6CN(C5)C(=O)CCSC[C@H](NC(=O)[C@@H]5CCCN5C(=O)[C@H](CO)NC(=O)[C@H](Cc5ccc(O)cc5)NC(=O)[C@H](CC(C)C)NC(=O)[C@@H](NC(=O)[C@H](C)N)CSCCC6=O)C(=O)N[C@@H](Cc5c[nH]c6ccccc56)C(=O)N[C@@H](Cc5c[nH]cn5)C(=O)N5CCC[C@H]5C(=O)N[C@@H](CC(C)C)C(=O)N[C@@H](CC(N)=O)C(=O)N[C@@H](CC(=O)O)C(=O)N4)C(N)=O)nn2)(COCCC(=O)NCCOCCOCCOCCOCCOCCOCCOCCOCCOCCOCCOCCOCCOCCOCCOCCOCCOCCOCCOCCOCCOCCOCCOCCn2cc(CCC(=O)NCCCC[C@H](NC(=O)[C@H](C)NC(=O)[C@@H]4CSCCC(=O)N5CN6CN(C5)C(=O)CCSC[C@H](NC(=O)[C@@H]5CCCN5C(=O)[C@H](CO)NC(=O)[C@H](Cc5ccc(O)cc5)NC(=O)[C@H](CC(C)C)NC(=O)[C@@H](NC(=O)[C@H](C)N)CSCCC6=O)C(=O)N[C@@H](Cc5c[nH]c6ccccc56)C(=O)N[C@@H](Cc5c[nH]cn5)C(=O)N5CCC[C@H]5C(=O)N[C@@H](CC(C)C)C(=O)N[C@@H](CC(N)=O)C(=O)N[C@@H](CC(=O)O)C(=O)N4)C(N)=O)nn2)COCCC(=O)NCCOCCOCCOCCOCCOCCOCCOCCOCCOCCOCCOCCOCCOCCOCCOCCOCCOCCOCCOCCOCCOCCOCCOCCn2cc(CCC(=O)NCCCC[C@H](NC(=O)[C@H](C)NC(=O)[C@@H]4CSCCC(=O)N5CN6CN(C5)C(=O)CCSC[C@H](NC(=O)[C@@H]5CCCN5C(=O)[C@H](CO)NC(=O)[C@H](Cc5ccc(O)cc5)NC(=O)[C@H](CC(C)C)NC(=O)[C@@H](NC(=O)[C@H](C)N)CSCCC6=O)C(=O)N[C@@H](Cc5c[nH]c6ccccc56)C(=O)N[C@@H](Cc5c[nH]cn5)C(=O)N5CCC[C@H]5C(=O)N[C@@H](CC(C)C)C(=O)N[C@@H](CC(N)=O)C(=O)N[C@@H](CC(=O)O)C(=O)N4)C(N)=O)nn2)nn1)C(N)=O)CSCCC3=O [BCY12019]
  EC50 (range in words): low nanomolar range
